Reference: PubChem BioAssay AID256 (DTP/NCI, 2004)
Several values for one entry are separate records, joined by “and”; a condition that tells them apart may be missing. Equal values may be shown once. Inconclusive results and toxic doses are left out.

Tested on: CD2F1 mice, L1210 leukemia ip, survival T/C
Assay: NCI In Vivo Anticancer Drug Screen. Data for tumor model L1210 Leukemia (intraperitoneal) in CD2F1 (CDF1) mice
Details: higher = longer survival
Outline: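 Each value reflects a quotient of treated over vehicle control outcomes in mice with a transplanted tumor.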

## O=P1(N(CCCl)CCCl)NCCCO1 (configuration not stated)
endpoint: mean survival time, dose: 10.0 mg/kg/injection, schedule: Q01DX009 (ip), vehicle: saline
  T/C: 124 % of control
endpoint: mean survival time, dose: 12.5 mg/kg/injection, schedule: Q01DX005 (ip), vehicle: water
  T/C: 120 % of control and 122 % of control
endpoint: mean survival time, dose: 12.5 mg/kg/injection, schedule: Q01DX009 (ip), vehicle: saline
  T/C: 114 % of control and 123 % of control
endpoint: mean survival time, dose: 20.0 mg/kg/injection, schedule: Q01DX009 (ip), vehicle: saline
  T/C: 122 % of control
endpoint: mean survival time, dose: 20.0 mg/kg/injection, schedule: Q03DX003 (ip), vehicle: saline
  T/C: 124 % of control
endpoint: mean survival time, dose: 20.0 mg/kg/injection, schedule: Q04DX003 (ip), vehicle: saline
  T/C: 114 % of control and 115 % of control
endpoint: mean survival time, dose: 25.0 mg/kg/injection, schedule: Q01DX001 (ip), vehicle: DMSO
  T/C: 115 % of control
endpoint: mean survival time, dose: 30.0 mg/kg/injection, schedule: Q04DX003 (ip), vehicle: water
  T/C: 113 % of control
endpoint: mean survival time, dose: 31.3 mg/kg/injection, schedule: Q01DX001 (ip), vehicle: DMSO
  T/C: 114 % of control
endpoint: mean survival time, dose: 31.3 mg/kg/injection, schedule: Q01DX001 (ip), vehicle: saline
  T/C: 113 % of control
endpoint: mean survival time, dose: 38.9 mg/kg/injection, schedule: Q01DX001 (ip), vehicle: water
  T/C: 119 % of control
endpoint: mean survival time, dose: 40.0 mg/kg/injection, schedule: Q01DX007 (ip), vehicle: saline
  T/C: 163 % of control
endpoint: mean survival time, dose: 40.0 mg/kg/injection, schedule: Q01DX009 (ip), vehicle: saline
  T/C: 170 % of control
endpoint: mean survival time, dose: 40.0 mg/kg/injection, schedule: Q03DX003 (ip), vehicle: saline
  T/C: 151 % of control
endpoint: mean survival time, dose: 40.0 mg/kg/injection, schedule: Q04DX003 (ip), vehicle: saline
  T/C: 155 % of control
endpoint: mean survival time, dose: 50.0 mg/kg/injection, schedule: Q01DX001 (ip), vehicle: DMSO
  T/C: 117 % of control
endpoint: mean survival time, dose: 50.0 mg/kg/injection, schedule: Q01DX001 (ip), vehicle: Klucel (hydroxypropylcellulose) (HPC)
  T/C: 113 % of control
endpoint: mean survival time, dose: 50.0 mg/kg/injection, schedule: Q01DX001 (ip), vehicle: other
  T/C: 115 % of control
endpoint: mean survival time, dose: 50.0 mg/kg/injection, schedule: Q01DX009 (ip), vehicle: saline
  T/C: 165 % of control and 173 % of control
endpoint: mean survival time, dose: 62.5 mg/kg/injection, schedule: Q01DX001 (ip), vehicle: Klucel (hydroxypropylcellulose) (HPC)
  T/C: 122 % of control
endpoint: mean survival time, dose: 62.5 mg/kg/injection, schedule: Q01DX001 (ip), vehicle: saline with Tween-80
  T/C: 124 % of control
endpoint: mean survival time, dose: 62.5 mg/kg/injection, schedule: Q01DX001 (ip), vehicle: water
  T/C: 121 % of control and 122 % of control
endpoint: mean survival time, dose: 80.0 mg/kg/injection, schedule: Q03DX003 (ip), vehicle: saline
  T/C: 192 % of control
endpoint: mean survival time, dose: 80.0 mg/kg/injection, schedule: Q04DX003 (ip), vehicle: saline
  T/C: 187 % of control
endpoint: mean survival time, dose: 100.0 mg/kg/injection, schedule: Q01DX001 (ip), vehicle: DMSO
  T/C: 158 % of control
endpoint: mean survival time, dose: 108.0 mg/kg/injection, schedule: Q01DX001 (ip), vehicle: saline
  T/C: 164 % of control
endpoint: mean survival time, dose: 108.0 mg/kg/injection, schedule: Q01DX001 (ip), vehicle: water
  T/C: 169 % of control
endpoint: mean survival time, dose: 125.0 mg/kg/injection, schedule: Q01DX001 (ip), vehicle: Klucel (hydroxypropylcellulose) (HPC)
  T/C: 170 % of control
endpoint: mean survival time, dose: 125.0 mg/kg/injection, schedule: Q01DX001 (ip), vehicle: saline with Tween-80
  T/C: 150 % of control and 159 % of control
endpoint: mean survival time, dose: 125.0 mg/kg/injection, schedule: Q01DX001 (ip), vehicle: water
  T/C: 156 % of control and 173 % of control
endpoint: mean survival time, dose: 133.0 mg/kg/injection, schedule: Q01DX001 (ip), vehicle: saline
  T/C: 167 % of control
endpoint: mean survival time, dose: 135.0 mg/kg/injection, schedule: Q01DX001 (ip), vehicle: saline
  T/C: 158 % of control and 171 % of control
endpoint: mean survival time, dose: 150.0 mg/kg/injection, schedule: Q01DX001 (ip), vehicle: water
  T/C: 172 % of control
endpoint: mean survival time, dose: 160.0 mg/kg/injection, schedule: Q01DX009 (ip), vehicle: saline
  T/C: 124 % of control
endpoint: mean survival time, dose: 180.0 mg/kg/injection, schedule: Q01DX001 (ip), vehicle: water
  T/C: 176 % of control
endpoint: mean survival time, dose: 196.0 mg/kg/injection, schedule: Q01DX001 (ip), vehicle: saline
  T/C: 201 % of control
endpoint: mean survival time, dose: 200.0 mg/kg/injection, schedule: Q01DX001 (ip), vehicle: Klucel (hydroxypropylcellulose) (HPC)
  T/C: 164 % of control and 198 % of control
endpoint: mean survival time, dose: 200.0 mg/kg/injection, schedule: Q01DX001 (ip), vehicle: other
  T/C: 189 % of control
endpoint: mean survival time, dose: 200.0 mg/kg/injection, schedule: Q01DX005 (ip), vehicle: water
  T/C: 191 % of control
endpoint: mean survival time, dose: 200.0 mg/kg/injection, schedule: Q04DX003 (ip), vehicle: saline
  T/C: 205 % of control
endpoint: mean survival time, dose: 250.0 mg/kg/injection, schedule: Q01DX001 (ip), vehicle: saline with Tween-80
  T/C: 190 % of control
endpoint: mean survival time, dose: 250.0 mg/kg/injection, schedule: Q01DX001 (ip), vehicle: water
  T/C: 188 % of control and 261 % of control and 280 % of control
endpoint: mean survival time, dose: 320.0 mg/kg/injection, schedule: Q04DX003 (ip), vehicle: saline
  T/C: 117 % of control
endpoint: mean survival time, dose: 400.0 mg/kg/injection, schedule: Q01DX001 (ip), vehicle: Klucel (hydroxypropylcellulose) (HPC)
  T/C: 187 % of control
endpoint: mean survival time, dose: 400.0 mg/kg/injection, schedule: Q01DX001 (ip), vehicle: other
  T/C: 183 % of control
endpoint: mean survival time, dose: 450.0 mg/kg/injection, schedule: Q01DX001 (ip), vehicle: saline
  T/C: 209 % of control
endpoint: mean survival time, dose: 500.0 mg/kg/injection, schedule: Q01DX001 (ip), vehicle: Klucel (hydroxypropylcellulose) (HPC)
  T/C: 173 % of control
endpoint: mean survival time, dose: 500.0 mg/kg/injection, schedule: Q01DX001 (ip), vehicle: saline with Tween-80
  T/C: 197 % of control
endpoint: mean survival time, dose: 500.0 mg/kg/injection, schedule: Q01DX001 (ip), vehicle: water
  T/C: 253 % of control and 223 % of control and 271 % of control
endpoint: median survival time, dose: 12.5 mg/kg/injection, schedule: Q01DX009 (ip), vehicle: saline
  T/C: 120 % of control and 122 % of control
endpoint: median survival time, dose: 20.0 mg/kg/injection, schedule: Q01DX009 (ip), vehicle: water
  T/C: 121 % of control
endpoint: median survival time, dose: 25.0 mg/kg/injection, schedule: Q01DX001 (ip), vehicle: saline
  T/C: 117 % of control and 118 % of control
endpoint: median survival time, dose: 25.0 mg/kg/injection, schedule: Q01DX001 (ip), vehicle: water
  T/C: 113 % of control
endpoint: median survival time, dose: 31.25 mg/kg/injection, schedule: Q01DX001 (ip), vehicle: water
  T/C: 116 % of control and 119 % of control (2×)
endpoint: median survival time, dose: 40.0 mg/kg/injection, schedule: Q01DX009 (ip), vehicle: water
  T/C: 153 % of control
endpoint: median survival time, dose: 50.0 mg/kg/injection, schedule: Q01DX005 (ip), vehicle: saline
  T/C: 169 % of control
endpoint: median survival time, dose: 50.0 mg/kg/injection, schedule: Q01DX009 (ip), vehicle: saline
  T/C: 178 % of control and 182 % of control
endpoint: median survival time, dose: 50.0 mg/kg/injection, schedule: Q03DX003 (ip), vehicle: saline
  T/C: 162 % of control
endpoint: median survival time, dose: 62.5 mg/kg/injection, schedule: Q01DX001 (ip), vehicle: water
  T/C: 151 % of control
endpoint: median survival time, dose: 66.0 mg/kg/injection, schedule: Q07DX003 (sc), vehicle: saline
  T/C: 155 % of control and 162 % of control
endpoint: median survival time, dose: 100.0 mg/kg/injection, schedule: Q01DX001 (ip), vehicle: water
  T/C: 155 % of control and 160 % of control
endpoint: median survival time, dose: 100.0 mg/kg/injection, schedule: Q01DX009 (ip), vehicle: saline
  T/C: 114 % of control
endpoint: median survival time, dose: 100.0 mg/kg/injection, schedule: Q03DX003 (ip), vehicle: saline
  T/C: 202 % of control
endpoint: median survival time, dose: 108.0 mg/kg/injection, schedule: Q01DX001 (iv), vehicle: saline
  T/C: 171 % of control
endpoint: median survival time, dose: 125.0 mg/kg/injection, schedule: Q01DX001 (ip), vehicle: water
  T/C: 183 % of control
endpoint: median survival time, dose: 150.0 mg/kg/injection, schedule: Q01DX001 (ip), vehicle: saline
  T/C: 169 % of control
endpoint: median survival time, dose: 250.0 mg/kg/injection, schedule: Q01DX001 (ip), vehicle: water
  T/C: 173 % of control
endpoint: median survival time, dose: 330.0 mg/kg/injection, schedule: Q07DX003 (ip), vehicle: saline
  T/C: 210 % of control
endpoint: median survival time, dose: 450.0 mg/kg/injection, schedule: Q01DX001 (ip), vehicle: saline
  T/C: 154 % of control

## O=NN(CCCl)C(=O)NC1CCC(=O)NC1=O (configuration not stated)
endpoint: median survival time, dose: 15.0 mg/kg/injection, schedule: Q01DX001 (ip), vehicle: saline with Tween-80
  T/C: 344 % of control
endpoint: median survival time, dose: 20.0 mg/kg/injection, schedule: Q01DX001 (ip), vehicle: saline with Tween-80
  T/C: 344 % of control
endpoint: median survival time, dose: 25.0 mg/kg/injection, schedule: Q01DX001 (ip), vehicle: saline with Tween-80
  T/C: 344 % of control
endpoint: median survival time, dose: 30.0 mg/kg/injection, schedule: Q01DX001 (ip), vehicle: saline with Tween-80
  T/C: 344 % of control

## Oc1ccc2ccccc2c1/C=N/N=C/c1c(O)ccc2ccccc12
endpoint: mean survival time, dose: 12.5 mg/kg/injection, schedule: Q01DX009 (ip), vehicle: Klucel (hydroxypropylcellulose) (HPC)
  T/C: 100 % of control
endpoint: mean survival time, dose: 25.0 mg/kg/injection, schedule: Q01DX009 (ip), vehicle: Klucel (hydroxypropylcellulose) (HPC)
  T/C: 96 % of control
endpoint: mean survival time, dose: 50.0 mg/kg/injection, schedule: Q01DX009 (ip), vehicle: Klucel (hydroxypropylcellulose) (HPC)
  T/C: 104 % of control

## Nc1ccc(CC(=O)Nc2ccc(S(=O)(=O)F)cc2)cc1
endpoint: mean survival time, dose: 100.0 mg/kg/injection, schedule: Q01DX001 (ip), vehicle: saline
  T/C: 102 % of control
endpoint: mean survival time, dose: 200.0 mg/kg/injection, schedule: Q01DX001 (ip), vehicle: saline
  T/C: 103 % of control
endpoint: mean survival time, dose: 400.0 mg/kg/injection, schedule: Q01DX001 (ip), vehicle: saline
  T/C: 105 % of control

## O=C(NCCN1CCCCC1)C(O)(C1CCCCC1)C1CCCCC1
endpoint: mean survival time, dose: 75.0 mg/kg/injection, schedule: Q01DX001 (ip), vehicle: saline
  T/C: 97 % of control
endpoint: mean survival time, dose: 150.0 mg/kg/injection, schedule: Q01DX001 (ip), vehicle: saline
  T/C: 97 % of control
endpoint: mean survival time, dose: 300.0 mg/kg/injection, schedule: Q01DX001 (ip), vehicle: saline
  T/C: 97 % of control
